According to ChEMBL document CHEMBL4699440, “Comprehensive review on the anti-bacterial activity of 1,2,3-triazole hybrids” (Eur J Med Chem, 2019):
Converted amounts (≈) assume the structure as drawn.

How the values were obtained:
[1] = system: Escherichia coli; experiment: Antibacterial activity against Escherichia coli ATCC 25922 after overnight incubation by CLSI M7-A9 based method; assay type: functional
[2] = system: Staphylococcus aureus; experiment: Antibacterial activity against methicillin-resistant Staphylococcus aureus ATCC 33591; assay type: functional
[3] = system: Providencia rettgeri; experiment: Antibacterial activity against Providencia rettgeri ATCC 31052; assay type: functional
[4] = system: Klebsiella pneumoniae; experiment: Antibacterial activity against Klebsiella pneumoniae ATCC 700603; assay type: functional
[5] = system: Proteus mirabilis; experiment: Antibacterial activity against Proteus mirabilis 13-1; assay type: functional
[6] = system: Enterococcus faecium; experiment: Antibacterial activity against Enterococcus faecium 13-7; assay type: functional
[7] = system: Escherichia coli; experiment: Antibacterial activity against Escherichia coli 14-11; assay type: functional
[8] = system: Pseudomonas aeruginosa; experiment: Antibacterial activity against Pseudomonas aeruginosa ATCC 27853; assay type: functional
[9] = system: Acinetobacter calcoaceticus; experiment: Antibacterial activity against Acinetobacter calcoaceticus ATCC 19606; assay type: functional
[10] = system: Citrobacter freundii; experiment: Antibacterial activity against Citrobacter freundii ATCC 43864; assay type: functional
[11] = system: Staphylococcus epidermidis; experiment: Antibacterial activity against methicillin-resistant Staphylococcus epidermidis 13-3; assay type: functional
[12] = system: Enterobacter cloacae; experiment: Antibacterial activity against Enterobacter cloacae ATCC 43560; assay type: functional
[13] = system: Proteus vulgaris; experiment: Antibacterial activity against Proteus vulgaris ATCC 29905; assay type: functional
[14] = system: Enterococcus faecium; experiment: Antibacterial activity against Enterococcus faecium ATCC 700221; assay type: functional
[15] = system: Enterococcus faecalis; experiment: Antibacterial activity against Enterococcus faecalis ATCC 29212 after overnight incubation by CLSI M7-A9 based method; assay type: functional
[16] = system: Staphylococcus aureus; experiment: Antibacterial activity against methicillin-sensitive Staphylococcus aureus ATCC 29213; assay type: functional
[17] = system: Klebsiella pneumoniae; experiment: Antibacterial activity against Klebsiella pneumoniae 7; assay type: functional
[18] = system: Enterococcus faecalis; experiment: Antibacterial activity against Enterococcus faecalis ATCC 51299; assay type: functional
[19] = system: Stenotrophomonas maltophilia; experiment: Antibacterial activity against Stenotrophomonas maltophilia ATCC 13636; assay type: functional
[20] = system: Morganella morganii; experiment: Antibacterial activity against Morganella morganii ATCC 25830; assay type: functional
[21] = system: Klebsiella aerogenes; experiment: Antibacterial activity against Enterobacter aerogenes ATCC 13048; assay type: functional
[22] = system: Serratia marcescens; experiment: Antibacterial activity against Serratia marcescens ATCC 21074; assay type: functional
[23] = system: Staphylococcus epidermidis; experiment: Antibacterial activity against methicillin-sensitive Staphylococcus epidermidis ATCC 12228; assay type: functional
[24] = system: Candida albicans; experiment: Antifungal activity against Candida albicans RCMB-05036 assessed as diameter of inhibition zone at 5 mg/ml by diffusion technique; assay type: functional; details: read-out: DIZ
[25] = system: Syncephalastrum racemosum; experiment: Antifungal activity against Syncephalastrum racemosum RCMB-05922 assessed as diameter of inhibition zone at 5 mg/ml by diffusion technique; assay type: functional; details: read-out: DIZ
[26] = system: Aspergillus fumigatus; experiment: Antifungal activity against Aspergillus fumigatus RCMB-02568 assessed as diameter of inhibition zone at 5 mg/ml by diffusion technique; assay type: functional; details: read-out: DIZ
[27] = system: Geotrichum candidum; experiment: Antifungal activity against Geotrichum candidum RCMB-05097 assessed as diameter of inhibition zone at 5 mg/ml by diffusion technique; assay type: functional; details: read-out: DIZ
[28] = system: Staphylococcus aureus; experiment: Antibacterial activity against Staphylococcus aureus RCMB-010010 assessed as diameter of inhibition zone at 5 mg/ml by diffusion technique; assay type: functional; details: read-out: DIZ
[29] = system: Escherichia coli; experiment: Antibacterial activity against Escherichia coli RCMB-010052 assessed as diameter of inhibition zone at 5 mg/ml by diffusion technique; assay type: functional; details: read-out: DIZ
[30] = system: Pseudomonas aeruginosa; experiment: Antibacterial activity against Pseudomonas aeruginosa RCMB-010043 assessed as diameter of inhibition zone at 5 mg/ml by diffusion technique; assay type: functional; details: read-out: DIZ
[31] = system: Bacillus cereus; experiment: Antibacterial activity against Bacillus cereus RCMB-010067 assessed as diameter of inhibition zone at 5 mg/ml by diffusion technique; assay type: functional; details: read-out: DIZ
[32] = system: Proteus vulgaris; experiment: Antibacterial activity against Proteus vulgaris ATCC 4636 assessed as inhibition zone; assay type: functional
[33] = system: Escherichia coli; experiment: Antibacterial activity against Escherichia coli ATCC 25922 assessed as inhibition zone; assay type: functional
[34] = system: Pseudomonas aeruginosa; experiment: Antibacterial activity against Pseudomonas aeruginosa ATCC 27853 assessed as inhibition zone; assay type: functional
[35] = system: Bacillus spizizenii; experiment: Antibacterial activity against Bacillus subtilis ATCC 6633 assessed as inhibition zone; assay type: functional
[36] = system: Staphylococcus aureus; experiment: Antibacterial activity against Staphylococcus aureus ATCC 25923 assessed as inhibition zone; assay type: functional
[37] = system: HepG2; experiment: Anticancer activity against human HepG2 cells by MTT assay; assay type: functional, cell-based
[38] = system: Proteus vulgaris; experiment: Antibacterial activity against Proteus vulgaris ATCC 3851 incubated for 24 hrs by broth dilution method; assay type: functional
[39] = system: Escherichia coli; experiment: Antibacterial activity against Escherichia coli ATCC 25922 incubated for 24 hrs by broth dilution method; assay type: functional
[40] = system: Salmonella typhimurium; experiment: Antibacterial activity against Salmonella typhimurium ATCC 14028 incubated for 24 hrs by broth dilution method; assay type: functional, Salmonella enterica subsp. enterica serovar Typhimurium; details: Salmonella enterica
[41] = system: Micrococcus luteus; experiment: Antibacterial activity against Micrococcus luteus IFC 12708 incubated for 24 hrs by broth dilution method; assay type: functional
[42] = system: Bacillus spizizenii; experiment: Antibacterial activity against Bacillus subtilis ATCC 6633 incubated for 24 hrs by broth dilution method; assay type: functional
[43] = system: Staphylococcus aureus; experiment: Antibacterial activity against Staphylococcus aureus ATCC 6538p incubated for 24 hrs by broth dilution method; assay type: functional

For `C[C@H]1COc2c(N3CCN(C)CC3)c(F)cc3c(=O)c(C(=O)O)cn1c23.C[C@H]1COc2c(N3CCN(C)CC3)c(F)cc3c(=O)c(C(=O)O)cn1c23.O` [LEVOFLOXACIN], the MIC [1] was no more than 0.03 µg/mL, the MIC [2] was no more than 0.03 µg/mL and the MIC [3] was no more than 0.03 µg/mL. The MIC [4] was no more than 0.03 µg/mL, the MIC [5] was no more than 0.03 µg/mL and the MIC [6] was no more than 0.03 µg/mL. The MIC [7] was no more than 0.03 µg/mL, the MIC [8] was no more than 0.03 µg/mL and the MIC [9] was no more than 0.03 µg/mL. The MIC [10] was no more than 0.03 µg/mL, the MIC [11] was no more than 0.03 µg/mL and the MIC [12] was no more than 0.03 µg/mL. For the same compound, the MIC [13] was no more than 0.03 µg/mL, the MIC [14] was no more than 0.03 µg/mL and the MIC [15] was no more than 0.03 µg/mL. It also gave an MIC [16] of no more than 0.03 µg/mL, an MIC [17] of no more than 0.03 µg/mL and an MIC [18] of no more than 0.03 µg/mL. For the same compound, the MIC [19] was no more than 0.03 µg/mL, the MIC [20] was no more than 0.03 µg/mL and the MIC [21] was no more than 0.03 µg/mL. For the same compound, the MIC [22] was no more than 0.03 µg/mL and the MIC [23] was no more than 0.03 µg/mL.
`Cc1ccc(-n2nc(N)c(C(=O)NCCNC(=O)c3nn(-c4ccc(C)cc4)nc3N)n2)cc1` was tested, and the zone of inhibition at 5000 µg/mL [24] was 8.3 mm, the zone of inhibition at 5000 µg/mL [25] was 8.3 mm and the zone of inhibition at 5000 µg/mL [26] was 8.3 mm. For the same compound, the zone of inhibition at 5000 µg/mL [27] was 8.3 mm, the zone of inhibition at 5000 µg/mL [28] was 8.3 mm and the zone of inhibition at 5000 µg/mL [29] was 8.3 mm. It also gave a zone of inhibition at 5000 µg/mL [30] of 8.3 mm and a zone of inhibition at 5000 µg/mL [31] of 8.3 mm.
With `O=C(OCc1cn(Cc2cccc(F)c2)nn1)c1cccc2c(=O)c3ccccc3[nH]c12` the “inhibition zone (IZ)” value [32] was 9.5 mm, the “inhibition zone (IZ)” value [33] was 9.5 mm and the “inhibition zone (IZ)” value [34] was 9.5 mm. The “inhibition zone (IZ)” value [35] was 9.5 mm and the “inhibition zone (IZ)” value [36] was 9.5 mm.
Compound `CC[C@]1(O)C[C@@H]2CN(CCc3c([nH]c4ccccc34)[C@@](C(=O)OC)(c3cc4c(cc3OC)N(C)[C@H]3[C@@](O)(C(=O)OC)[C@H](OC(C)=O)[C@]5(CC)C=CCN6CC[C@]43[C@@H]65)C2)C1` [VINBLASTINE] has an IC50 [37] of 4.6 µg/mL (≈ 5.67 µM).
Work on `CC1(C)O[C@H]2O[C@@H]([C@H]3SC(Cc4nc5ccccc5[nH]4)C(=O)N3c3ccc(Cl)cc3)[C@@H](OCc3cn(-c4ccc(Cl)cc4)nn3)[C@H]2O1` (stereo partly drawn) yielded an MIC [38] of 1.56 µg/mL (≈ 2.25 µM), an MIC [39] of 1.56 µg/mL (≈ 2.25 µM) and an MIC [40] of 1.56 µg/mL (≈ 2.25 µM). The MIC [41] was 1.56 µg/mL (≈ 2.25 µM), the MIC [42] was 1.56 µg/mL (≈ 2.25 µM) and the MIC [43] was 1.56 µg/mL (≈ 2.25 µM).
